ChEMBL document CHEMBL5241092, “The antibacterial activity of fluoroquinolone derivatives: An update (2018-2021)” (2021)
Converted amounts (≈) assume the structure as drawn.

Key:
Pseudomonas aeruginosa [1] = experiment: Antibacterial activity against Pseudomonas aeruginosa PAO200; format: functional
Pseudomonas aeruginosa [2] = experiment: Antibacterial activity against Pseudomonas aeruginosa PAO1; format: functional
Klebsiella pneumoniae [3] = experiment: Synergistic antibacterial activity against Klebsiella pneumoniae assessed as reduction in mitomycin C MIC (reference value: […] to […] microg/ml); format: functional
Enterobacter cloacae = experiment: Synergistic antibacterial activity against Enterobacter cloacae assessed as reduction in mitomycin C MIC (reference value: […] to […] microg/ml); format: functional
Pseudomonas aeruginosa [4] = experiment: Antibacterial activity against Pseudomonas aeruginosa PAO750; format: functional
Escherichia coli [5] = experiment: Synergistic antibacterial activity against Escherichia coli assessed as reduction in mitomycin C MIC (reference value: […] to […] microg/ml); format: functional
Pseudomonas aeruginosa [6] = experiment: Synergistic antibacterial activity against Pseudomonas aeruginosa assessed as reduction in mitomycin C MIC (reference value: […] to […] microg/ml); format: functional
Staphylococcus aureus [7] = experiment: Potency index, ratio of levofloxacin MIC to test compound MIC for antibacterial activity against fluoroquinolone/methicillin resistant Staphylococcus aureus; format: functional
Staphylococcus aureus [8] = experiment: Antibacterial activity against fluoroquinolone/methicillin resistant Staphylococcus aureus; format: functional
Staphylococcus aureus [9] = experiment: Antibacterial activity against fluoroquinolone sensitive Staphylococcus aureus; format: functional
Escherichia coli [10] = experiment: Antibacterial activity against quinolone susceptible Escherichia coli; format: functional
Escherichia coli [11] = experiment: Antibacterial activity against quinolone resistant Escherichia coli; format: functional
Pseudomonas aeruginosa [12] = experiment: Antibacterial activity against quinolone resistant Pseudomonas aeruginosa; format: functional
Pseudomonas aeruginosa [13] = experiment: Antibacterial activity against quinolone susceptible Pseudomonas aeruginosa; format: functional
Pseudomonas aeruginosa [14] = experiment: Potency index, ratio of levofloxacin MIC to test compound MIC for quinolone resistant Pseudomonas aeruginosa; format: functional
Acinetobacter baumannii [15] = experiment: Antibacterial activity against quinolone resistant Acinetobacter baumannii; format: functional
Escherichia coli [16] = experiment: Potency index, ratio of levofloxacin MIC to test compound MIC for quinolone resistant Escherichia coli; format: functional
Acinetobacter baumannii [17] = experiment: Potency index, ratio of levofloxacin MIC to test compound MIC for quinolone resistant Acinetobacter baumannii; format: functional
Clostridioides difficile = experiment: Antibacterial activity against Clostridioides difficile; format: functional
Micrococcus luteus = experiment: Antibacterial activity against Micrococcus luteus; format: functional
[18] = Antibacterial activity against Salmonella typhi; format: functional, Salmonella enterica subsp. enterica serovar Typhimurium; conditions: Salmonella enterica
Shigella flexneri = experiment: Antibacterial activity against Shigella flexneri; format: functional
Klebsiella pneumoniae [19] = experiment: Antibacterial activity against Klebsiella pneumoniae; format: functional
Citrobacter freundii = experiment: Antibacterial activity against Citrobacter freundii; format: functional
Bacillus subtilis = experiment: Antibacterial activity against Bacillus subtilis; format: functional
Escherichia coli [20] = experiment: Antibacterial activity against ciprofloxacin resistant Escherichia coli; format: functional
Chlamydia trachomatis = experiment: Antibacterial activity against Chlamydia trachomatis; format: functional
Vibrio cholerae = experiment: Antibacterial activity against Vibrio cholerae; format: functional
[21] = system: Staphylococcus epidermidis; experiment: Antibacterial activity against Staphylococcus epidermidis; format: functional
Pseudomonas aeruginosa [22] = experiment: Antibacterial activity against Pseudomonas aeruginosa; format: functional
Staphylococcus aureus [23] = experiment: Antibacterial activity against methicillin susceptible Staphylococcus aureus; format: functional
Staphylococcus aureus [24] = experiment: Antibacterial activity against Staphylococcus aureus; format: functional
Priestia megaterium = experiment: Antibacterial activity against Bacillus megaterium; format: functional
Staphylococcus aureus [25] = experiment: Antibacterial activity against ciprofloxacin resistant Staphylococcus aureus; format: functional
Streptococcus pneumoniae [26] = experiment: Antibacterial activity against Streptococcus pneumoniae; format: functional
Staphylococcus aureus [27] = experiment: Antibacterial activity against methicillin resistant Staphylococcus aureus 3; format: functional
Staphylococcus aureus [28] = experiment: Potency index, ratio of vancomycin MIC to test compound MIC for antibacterial activity against methicillin resistant Staphylococcus aureus 3; format: functional
Staphylococcus aureus [29] = experiment: Antibacterial activity against methicillin resistant Staphylococcus aureus 1; format: functional
Staphylococcus aureus [30] = experiment: Antibacterial activity against methicillin resistant Staphylococcus aureus 2; format: functional
Staphylococcus aureus [31] = experiment: Potency index, ratio of vancomycin MIC to test compound MIC for antibacterial activity against methicillin resistant Staphylococcus aureus 2; format: functional
Staphylococcus aureus [32] = experiment: Potency index, ratio of vancomycin MIC to test compound MIC for antibacterial activity against methicillin resistant Staphylococcus aureus 1; format: functional
Staphylococcus aureus [33] = experiment: Potency index, ratio of vancomycin MIC to test compound MIC for antibacterial activity against methicillin susceptible Staphylococcus aureus; format: functional
Staphylococcus aureus [34] = experiment: Potency index, ratio of vancomycin MIC to test compound MIC for antibacterial activity against Staphylococcus aureus; format: functional
Staphylococcus aureus [35] = experiment: Potency index, ratio of gatifloxacin MIC to test compound MIC for antibacterial activity against Staphylococcus aureus; format: functional
Streptococcus pneumoniae [36] = experiment: Potency index, ratio of vancomycin MIC to test compound MIC for antibacterial activity against methicillin susceptible Streptococcus pneumoniae; format: functional
Staphylococcus aureus [37] = experiment: Potency index, ratio of gatifloxacin MIC to test compound MIC for antibacterial activity against methicillin susceptible Staphylococcus aureus; format: functional
Streptococcus pneumoniae [38] = experiment: Potency index, ratio of gatifloxacin MIC to test compound MIC for antibacterial activity against methicillin susceptible Streptococcus pneumoniae; format: functional
Escherichia coli [39] = experiment: Antibacterial activity against Escherichia coli; format: functional
[40] = system: Staphylococcus epidermidis; experiment: Potency index, ratio of ciprofloxacin MIC to test compound MIC for antibacterial activity against methicillin sensitive Staphylococcus epidermidis; format: functional
Staphylococcus aureus [41] = experiment: Potency index, ratio of ciprofloxacin MIC to test compound MIC for antibacterial activity against methicillin sensitive Staphylococcus aureus; format: functional
Staphylococcus aureus [42] = experiment: Antibacterial activity against methicillin resistant Staphylococcus aureus; format: functional
Staphylococcus aureus [43] = experiment: Potency index, ratio of ciprofloxacin MIC to test compound MIC for antibacterial activity against Staphylococcus aureus; format: functional

SMILES: NC[C@H]1O[C@H](O[C@H]2[C@H](OCCCCN3CCN(c4cc5c(cc4F)c(=O)c(C(=O)O)cn5C4CC4)CC3)[C@@H](O[C@H]3O[C@H](CO)[C@@H](O)[C@H](N)[C@H]3O)[C@H](N)C[C@@H]2N)[C@H](N)C[C@@H]1O
- MIC (Pseudomonas aeruginosa [1]): 4 µg/mL (≈ 4.69 µM)
- MIC (Pseudomonas aeruginosa [2]): 32 µg/mL (≈ 37.5 µM)
- MIC (Klebsiella pneumoniae [3]): 0.31 µg/mL
- MIC (Enterobacter cloacae): 0.31 µg/mL
- MIC (Pseudomonas aeruginosa [4]): 2 µg/mL (≈ 2.34 µM)
- MIC (Escherichia coli [5]): 0.31 µg/mL
- MIC (Pseudomonas aeruginosa [6]): 0.31 µg/mL

SMILES: C[C@H]1COc2c(N3C4CCC3CC(OC(=O)CCl)C4)c(F)cc3c(=O)c(C(=O)O)cn1c23 (some centres not stated)
- Ratio (Staphylococcus aureus [7]): 4
- MIC (Staphylococcus aureus [8]): ≤ 0.5 µg/mL
- MIC (Staphylococcus aureus [9]): ≤ 0.5 µg/mL

SMILES: CNC1CN(c2c(F)c(C)c3c(=O)c(C(=O)O)cn(-c4cc(N)c(F)cc4CO)c3c2Cl)C1
- MIC (Escherichia coli [10]): 0.008 µg/mL (≈ 0.0167 µM)
- MIC (Escherichia coli [11]): 0.12 µg/mL (≈ 0.251 µM)
- MIC (Pseudomonas aeruginosa [12]): 0.12 µg/mL (≈ 0.251 µM)
- MIC (Pseudomonas aeruginosa [13]): 0.008 µg/mL (≈ 0.0167 µM)
- Ratio (Pseudomonas aeruginosa [14]): 2
- MIC (Acinetobacter baumannii [15]): 0.12 µg/mL (≈ 0.251 µM)
- Ratio (Escherichia coli [16]): 2
- Ratio (Acinetobacter baumannii [17]): 2

SMILES: C[C@H]1COc2c(N3CCN(C)CC3)c(F)cc3c(=O)c(C(=O)O)cn1c23.C[C@H]1COc2c(N3CCN(C)CC3)c(F)cc3c(=O)c(C(=O)O)cn1c23.O [LEVOFLOXACIN]
- MIC (Escherichia coli [11]): 4 µg/mL
- MIC (Pseudomonas aeruginosa [13]): 0.015 µg/mL
- MIC (Acinetobacter baumannii [15]): 4 µg/mL
- MIC50 (Clostridioides difficile): 128 µg/mL
- MIC90 (Clostridioides difficile): > 128 µg/mL

SMILES: O=C(O)c1cn(C2CC2)c2cc(N3CCNCC3)c(F)cc2c1=O [CIPROFLOXACIN]
- MIC (Micrococcus luteus): 7.8 µg/mL (≈ 23.5 µM)
- MIC [18]: 0.15 µg/mL (≈ 0.453 µM)
- MIC (Shigella flexneri): 0.15 µg/mL (≈ 0.453 µM)
- MIC (Klebsiella pneumoniae [19]): 0.15 µg/mL (≈ 0.453 µM)
- MIC (Pseudomonas aeruginosa [12]): 16 µg/mL (≈ 48.3 µM)
- MIC (Citrobacter freundii): 0.15 µg/mL (≈ 0.453 µM)
- MIC (Bacillus subtilis): 0.015 µg/mL (≈ 0.0453 µM)
- MIC (Escherichia coli [20]): 20.5 µg/mL (≈ 61.9 µM)
- MIC (Pseudomonas aeruginosa [13]): 0.008 µg/mL (≈ 0.0241 µM)
- MBC (Chlamydia trachomatis): > 50 µg/mL
- MIC (Acinetobacter baumannii [15]): 16 µg/mL (≈ 48.3 µM)
- MIC (Vibrio cholerae): 0.15 µg/mL (≈ 0.453 µM)
- MIC [21]: 0.015 µg/mL (≈ 0.0453 µM)
- MIC (Pseudomonas aeruginosa [22]): 0.012 µg/mL (≈ 0.0362 µM)
- MIC (Staphylococcus aureus [23]): 0.195 µg/mL (≈ 0.589 µM)
- MIC (Staphylococcus aureus [24]): 0.015 µg/mL (≈ 0.0453 µM)
- MIC (Priestia megaterium): 7.8 µg/mL (≈ 23.5 µM)
- MIC (Staphylococcus aureus [25]): 20.5 µg/mL (≈ 61.9 µM)

SMILES: COc1c(N2CCNC(C)C2)c(F)cc2c(=O)c(C(=O)O)cn(C3CC3)c12 (configuration not stated) [GATIFLOXACIN]
- MIC (Streptococcus pneumoniae [26]): 0.06 µg/mL (≈ 0.16 µM)
- MIC (Staphylococcus aureus [23]): 0.06 µg/mL (≈ 0.16 µM)
- MIC (Staphylococcus aureus [24]): 0.06 µg/mL (≈ 0.16 µM)

SMILES: CCn1cc(C(=O)O)c(=O)c2cc(F)c(N3CCN(Cc4nnc(-c5cccc(OC)c5)o4)CC3)cc21
- MIC (Staphylococcus aureus [27]): 1 µg/mL (≈ 1.97 µM)
- Ratio (Staphylococcus aureus [28]): 2
- MIC (Staphylococcus aureus [29]): 0.5 µg/mL (≈ 0.985 µM)
- MIC (Staphylococcus aureus [30]): 0.5 µg/mL (≈ 0.985 µM)
- Ratio (Staphylococcus aureus [31]): 2
- Ratio (Staphylococcus aureus [32]): 2
- MIC (Staphylococcus aureus [24]): 2 µg/mL (≈ 3.94 µM)

SMILES: CO/N=C1/C(=O)N(Cc2cn(CC(=O)N3CCN(c4c(F)cc5c(=O)c(C(=O)O)cn(C6CC6)c5c4OC)CC3C)nn2)c2ccc(F)cc21 (configuration not stated)
- MIC (Staphylococcus aureus [27]): ≤ 0.03 µg/mL
- Ratio (Staphylococcus aureus [33]): 2
- Ratio (Staphylococcus aureus [34]): 2
- Ratio (Staphylococcus aureus [35]): 2
- MIC (Staphylococcus aureus [29]): ≤ 0.03 µg/mL
- MIC (Staphylococcus aureus [30]): ≤ 0.03 µg/mL
- Ratio (Streptococcus pneumoniae [36]): 2
- Ratio (Staphylococcus aureus [37]): 2
- MIC (Streptococcus pneumoniae [26]): 0.06 µg/mL (≈ 0.0869 µM)
- Ratio (Streptococcus pneumoniae [38]): 2
- MIC (Staphylococcus aureus [23]): 0.06 µg/mL (≈ 0.0869 µM)
- MIC (Staphylococcus aureus [24]): 0.06 µg/mL (≈ 0.0869 µM)

SMILES: O=C(CSC(=S)N1CCN(c2cc3c(cc2F)c(=O)c(C(=O)O)cn3C2CC2)CC1)Nc1ccccc1Cl
- MIC (Escherichia coli [39]): 0.024 µg/mL (≈ 0.0417 µM)
- Ratio [40]: 2
- Ratio (Staphylococcus aureus [41]): 2
- MIC (Staphylococcus aureus [42]): 0.097 µg/mL (≈ 0.169 µM)
- MIC [21]: 0.097 µg/mL (≈ 0.169 µM)
- MIC (Pseudomonas aeruginosa [22]): 0.024 µg/mL (≈ 0.0417 µM)
- MIC (Staphylococcus aureus [23]): 0.097 µg/mL (≈ 0.169 µM)
- MIC (Staphylococcus aureus [24]): 0.097 µg/mL (≈ 0.169 µM)
- Ratio (Staphylococcus aureus [43]): 2
